The results in this text go back to ChEMBL document CHEMBL2010725, “Synthesis and Cardiac Imaging of (18)F-Ligands Selective for β1-Adrenoreceptors” (ACS Med Chem Lett, 2011).

The target in data set [1] is Beta-1 adrenergic receptor (Homo sapiens, UniProt P08588). As to the kind of experiment: Displacement of [3H](-)-CGP-12177 from adrenergic beta1 receptor by cell based assay. On the technique in general: In a radioligand displacement assay an active substance lowers the binding of a labelled ligand.
Beta-1 adrenergic receptor, sequence (P08588 whole entry): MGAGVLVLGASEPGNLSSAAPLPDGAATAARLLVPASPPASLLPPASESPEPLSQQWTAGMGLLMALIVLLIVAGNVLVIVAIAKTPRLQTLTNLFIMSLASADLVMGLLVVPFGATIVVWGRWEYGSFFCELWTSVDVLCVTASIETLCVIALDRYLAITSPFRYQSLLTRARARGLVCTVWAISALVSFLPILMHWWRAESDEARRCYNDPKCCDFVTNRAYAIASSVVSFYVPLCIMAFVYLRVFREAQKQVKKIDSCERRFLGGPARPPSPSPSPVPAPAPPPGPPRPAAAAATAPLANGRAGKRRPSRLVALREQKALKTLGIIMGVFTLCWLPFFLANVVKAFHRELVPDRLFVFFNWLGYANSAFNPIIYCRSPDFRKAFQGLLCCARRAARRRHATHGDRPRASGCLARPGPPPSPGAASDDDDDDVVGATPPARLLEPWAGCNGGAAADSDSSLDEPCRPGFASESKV
The nature of data set [2]: Selectivity ratio of IC50 for adrenergic beta2 receptor to IC50 for adrenergic beta1 receptor.
Data set [3] concerns Lung. The data set is described as follows: Biodistribution in Sprague-Dawley rat lung at 15 uCi after 30 mins by gamma counting. Format: ADME, organism-based. The conditions noted are these: in vivo, 0.5 h.
In data set [4] the test system is Spleen. The data set is described as follows: Biodistribution in Sprague-Dawley rat spleen at 15 uCi after 30 mins by gamma counting. Format: ADME, organism-based. The conditions noted are these: in vivo, 0.5 h.
Data set [5] can be described thus: Drug uptake in Sprague-Dawley rat myocardium at 1 mCi after 60 mins by microPET analysis. Format: ADME, tissue-based. The conditions noted are these: in vivo, 1 h.
Data set [6] in a line: Ratio of drug level in lung to heart in Sprague-Dawley rat at 15 uCi after 30 mins by gamma counting. The conditions noted are these: in vivo, 0.5 h.
The test system of data set [7] is Kidney. As to the kind of experiment: Biodistribution in Sprague-Dawley rat kidney at 15 uCi after 30 mins by gamma counting. Format: ADME, organism-based. The conditions noted are these: in vivo, 0.5 h.
Data set [8] deals with Muscle tissue. The data set is described as follows: Biodistribution in Sprague-Dawley rat muscle at 15 uCi after 30 mins by gamma counting. Format: ADME, organism-based. The conditions noted are these: in vivo, 0.5 h.
Data set [9] relates to Femur. The data set is described as follows: Biodistribution in Sprague-Dawley rat femur at 15 uCi after 30 mins by gamma counting. It is filed as ADME, organism-based. The conditions noted are these: in vivo, 0.5 h.
The subject of data set [10] is Blood. The data set is described as follows: Biodistribution in Sprague-Dawley rat blood at 15 uCi after 30 mins by gamma counting. It is filed as ADME, organism-based. The conditions noted are these: in vivo, 0.5 h.
Data set [11] relates to Heart. The data set is described as follows: Biodistribution in Sprague-Dawley rat heart at 15 uCi after 30 mins by gamma counting. It is filed as ADME, organism-based. The conditions noted are these: in vivo, 0.5 h.
The nature of data set [12]: Drug uptake in Sprague-Dawley rat myocardium at 1 mCi after 30 mins by microPET analysis. It is filed as ADME, tissue-based. The conditions noted are these: in vivo, 0.5 h.
The subject of data set [13] is Liver. As to the kind of experiment: Biodistribution in Sprague-Dawley rat liver at 15 uCi after 30 mins by gamma counting. Format: ADME, organism-based. The conditions noted are these: in vivo, 0.5 h.
In data set [14] the test system is Liver. The data set is described as follows: Drug uptake in Sprague-Dawley rat liver at 1 mCi after 30 mins by microPET analysis. Format: ADME, tissue-based. The conditions noted are these: in vivo, 0.5 h.
The test system of data set [15] is Liver. As to the kind of experiment: Drug uptake in Sprague-Dawley rat liver at 1 mCi after 60 mins by microPET analysis. It is filed as ADME, tissue-based. The conditions noted are these: in vivo, 1 h.
Data set [16] can be described thus: Drug uptake in Sprague-Dawley rat myocardium after <5 mins by microPET analysis. It is filed as ADME, tissue-based. The conditions noted are these: in vivo.
Data set [17] concerns Rattus norvegicus. The data set is described as follows: Drug metabolism in rat assessed as progressive loss of parent compound at 1 mCi/kg, iv after 2 mins by HPLC analysis. The conditions noted are these: in vivo. It is filed as ADME, organism-based.
Data set [18] deals with Liver. The data set is described as follows: Drug uptake in Sprague-Dawley rat liver after <5 mins by microPET analysis. It is filed as ADME. The conditions noted are these: in vivo.
Data set [19] concerns Lung. As to the kind of experiment: Drug uptake in Sprague-Dawley rat lung after <5 mins by microPET analysis. The conditions noted are these: in vivo. It is filed as ADME, tissue-based.
Data set [20] deals with Rattus norvegicus. The data set is described as follows: Drug metabolism in rat assessed as progressive loss of parent compound at 1 mCi/kg, iv after 30 mins by HPLC analysis. It is filed as ADME, organism-based. The conditions noted are these: in vivo, 0.5 h.
Data set [21] in a line: Drug excretion in rat urine assessed as parent compound at 1 mCi/kg, iv after 30 mins by HPLC analysis. Format: ADME, organism-based. The conditions noted are these: read-out: Drug excretion.

A word on the IC50: it is the concentration that inhibits the measured activity by half. A higher IC50 goes with weaker potency in that assay. In data set [1], `N#Cc1ccccc1OC[C@@H](O)CNCCNC(=O)Nc1cccc(OCCF)c1` yielded an IC50 of 0.04 nM. Moreover, the Ratio IC50 in data set [2] was 265.

`N#Cc1ccccc1OC[C@@H](O)CNCCNC(=O)NC1CCN(CCF)CC1` registered an IC50 in [1] greater than 100 nM. Further, in [2], the Ratio IC50 amounted to 0.05.

Turning to `N#Cc1ccccc1OC[C@@H](O)CNCCCC(=O)Nc1ccc(F)nc1`, the IC50 in [1] came out at 3 nM. The Ratio IC50 in [2] was 30.

For the molecule `N#Cc1ccccc1OC[C@@H](O)CNCCNC(=O)Nc1cnc(Br)cn1`, in data set [1], the IC50 was 0.35 nM. For the same molecule, in data set [2], the Ratio IC50 is 163.

In turn, `N#Cc1ccccc1OC[C@@H](O)CNCCNC(=O)Nc1ccc(OCCF)cc1` gave an IC50 in [1] of 0.08 nM. Besides, in data set [2], the Ratio IC50 is 448.

The molecule `N#Cc1ccccc1OC[C@@H](O)CNCCNC(=O)N1CCOCC1` gave an IC50 in data set [1] of 20 nM. Further, in data set [2], the Ratio IC50 was 4.

`CC(CF)Nc1ccc(NC(=O)NCCNC[C@H](O)COc2ccccc2C#N)cc1` (stereo partly drawn) gave an IC50 in [1] of 1.5 nM. Moreover, in data set [2], the Ratio IC50 worked out at 13.

With `N#Cc1ccccc1OC[C@@H](O)CNCCNC(=O)Nc1ccc(OCCC[18F])cc1`, the Drug uptake is given as 0.63 % ID/g in data set [3]; 0.4 % ID/g in [4]; “Not Active” in [5]; 1.38 % ID/g in data set [7]; 0.09 % ID/g in [8]; 0.63 % ID/g in data set [9]. The Drug uptake in data set [10] is recorded as 0.21 % ID/g; in data set [11], 0.42 % ID/g; in data set [12], “Active”; in [13] it was 1.03 % ID/g; in [14], “Active”; in data set [15], “Not Active”. Also, the Ratio in data set [6] is 1.5.

For the molecule `COc1ccc(NC(=O)NCCNC[C@H](O)COc2ccccc2C#N)cc1`, the IC50 in data set [1] amounted to 0.11 nM. Besides, the Ratio IC50 in data set [2] worked out at 145.

In data set [1], `N#Cc1ccccc1OC[C@@H](O)CNCCNC(=O)Nc1nnn(CCF)n1` returned an IC50 of 10 nM. Also, the Ratio IC50 in [2] was 10.

With `N#Cc1ccccc1OC[C@@H](O)CNCCNC(=O)Nc1ccc(F)cc1`, the IC50 in [1] amounted to 0.1 nM. The Ratio IC50 in data set [2] was determined as 150.

On to `CCOc1ccc(NC(=O)NCCNC[C@H](O)COc2cccc(F)c2C#N)cc1`, for which the IC50 in [1] was 2 nM. In [2], the Ratio IC50 stood at 32.

Regarding `N#Cc1ccccc1OC[C@@H](O)CNCCNC(=O)Nc1nccs1`, the IC50 in [1] turned out to be 26 nM. Besides, the Ratio IC50 in data set [2] turned out to be 8.

In the case of `N#Cc1ccccc1OC[C@@H](O)CNCCNC(=O)Nc1ccc(OCC[18F])cc1`, the Drug uptake was 0.97 % ID/g in data set [3]; 0.37 % ID/g in [4]; “Not Active” in data set [5]; 1.26 % ID/g in data set [7]; 0.08 % ID/g in data set [8]; 0.27 % ID/g in [9]. Also, the Drug uptake in [10] is recorded as 0.18 % ID/g; in data set [11], 0.48 % ID/g; in data set [12], “Active”; in data set [13], 1.14 % ID/g; in [14], “Active”; in [15], “Not Active”. For the same molecule, the Ratio in data set [6] was determined as 2.

Turning to `N#Cc1ccccc1OC[C@@H](O)CNCCNS(=O)(=O)c1ccccc1F`, the IC50 in data set [1] turned out to be 5 nM. In addition, the Ratio IC50 in [2] worked out at 0.1.

Consider `N#Cc1ccccc1OC[C@@H](O)CNCCNC(=O)Nc1cccc(OCC[18F])c1`, for which the Drug uptake in data set [3] was 0.79 % ID/g; in data set [4] it was 0.52 % ID/g; in [5] it was “Not Active”; in data set [16], “Active”; in data set [7], 2.01 % ID/g; in data set [8], 0.1 % ID/g. Besides, the Drug uptake in data set [9] is given as 0.16 % ID/g; in [10], 0.14 % ID/g; in data set [18] it was “Active”; in [11], 0.62 % ID/g; in data set [19], “Active”; in data set [12], “Active”. For the same molecule, the Drug uptake in data set [13] is recorded as 1.14 % ID/g; in data set [14], “Active”; in data set [15], “Not Active”. In data set [6], the Ratio worked out at 1.27. For the same molecule, the figures for the Drug metabolism in [17] and in data set [20] were 83% and 44%, respectively. Moreover, the dose excreted at 0.5 h in data set [21] was 76%.

With `N#Cc1ccccc1OC[C@@H](O)CNCCNC(=O)Nc1ccc(C(=O)O)c(F)c1`, the IC50 in data set [1] is 1 nM. In addition, in [2], the Ratio IC50 was 511.

The molecule `N#Cc1ccccc1OC[C@@H](O)CNCCNC(=O)Nc1ccc(OCCCF)cc1` registered an IC50 in data set [1] of 0.25 nM. Also, in data set [2], the Ratio IC50 was determined as 65.

`N#Cc1ccccc1OC[C@@H](O)CNCCNC(=O)Nc1ccccc1F` came in with an IC50 in [1] of 0.2 nM. Besides, in data set [2], the Ratio IC50 is 69.

Turning to `N#Cc1ccccc1OC[C@@H](O)CNCCNC(=O)Nc1ccc(Br)nc1`, in [1], the IC50 came out at 0.05 nM. Further, in data set [2], the Ratio IC50 was greater than 1000.

As for `N#Cc1ccccc1OC[C@@H](O)CNCCNC(=O)Nc1ccc(F)nc1`, the IC50 in data set [1] amounted to 0.3 nM. The Ratio IC50 in data set [2] stood at 345.

In data set [1], `N#Cc1ccccc1OC[C@@H](O)CNCCNC(=O)Cc1ccc(F)cc1` registered an IC50 of 0.14 nM. Moreover, the Ratio IC50 in data set [2] is 6.

`N#Cc1c(F)cccc1OC[C@@H](O)CNCCNC(=O)Nc1ccc(C(=O)O)cc1` had an IC50 in data set [1] of 21 nM. Further, in data set [2], the Ratio IC50 was found to be 164.

On to `N#Cc1ccccc1OC[C@@H](O)CNCCNC(=O)c1ccc(F)nc1`, for which the IC50 in data set [1] was determined as 10 nM. Also, in data set [2], the Ratio IC50 was 4.

In data set [1], `N#Cc1ccccc1OC[C@@H](O)CNCCNC(=O)Nc1ccc(I)nc1` gave an IC50 of 0.05 nM. Also, the Ratio IC50 in data set [2] came out at 723.

Take `N#Cc1ccc(F)cc1OC[C@@H](O)CNCCNC(=O)Nc1ccc(C(=O)O)cc1`: in data set [1], the IC50 was found to be 2 nM. For the same molecule, the Ratio IC50 in [2] was found to be 70.

With `N#Cc1ccccc1OC[C@@H](O)CNCCNC(=O)Nc1ccc(OCCF)nc1`, in data set [1], the 50% inhibitory concentration (IC50) is 0.1 nM. Also, in data set [2], the Ratio IC50 was determined as 50.
